Measurements reported in US7820700B2, “2-phenylpyridine derivative” (Astellas Pharma Inc., priority 2004, dated 2010).
pIC50: −log10 of the molar value. Counter-ions that a name gives are not always drawn.

Legend:
[1] = target: T1, xanthine oxidase (derived from butter milk) (Bos taurus, UniProt P80457); test: Xanthine oxidase-inhibitory activity (pterin oxidation, fluorescence); assay type: biochemical; details: pterin 5 μM, room temperature; read-out: IC50 (xanthine oxidase inhibition)
T1 construct: xanthine oxidase (derived from butter milk, manufactured by Sigma); purchased Sigma; host or cells: butter milk (natural source)
T1 sequence (P80457 whole entry): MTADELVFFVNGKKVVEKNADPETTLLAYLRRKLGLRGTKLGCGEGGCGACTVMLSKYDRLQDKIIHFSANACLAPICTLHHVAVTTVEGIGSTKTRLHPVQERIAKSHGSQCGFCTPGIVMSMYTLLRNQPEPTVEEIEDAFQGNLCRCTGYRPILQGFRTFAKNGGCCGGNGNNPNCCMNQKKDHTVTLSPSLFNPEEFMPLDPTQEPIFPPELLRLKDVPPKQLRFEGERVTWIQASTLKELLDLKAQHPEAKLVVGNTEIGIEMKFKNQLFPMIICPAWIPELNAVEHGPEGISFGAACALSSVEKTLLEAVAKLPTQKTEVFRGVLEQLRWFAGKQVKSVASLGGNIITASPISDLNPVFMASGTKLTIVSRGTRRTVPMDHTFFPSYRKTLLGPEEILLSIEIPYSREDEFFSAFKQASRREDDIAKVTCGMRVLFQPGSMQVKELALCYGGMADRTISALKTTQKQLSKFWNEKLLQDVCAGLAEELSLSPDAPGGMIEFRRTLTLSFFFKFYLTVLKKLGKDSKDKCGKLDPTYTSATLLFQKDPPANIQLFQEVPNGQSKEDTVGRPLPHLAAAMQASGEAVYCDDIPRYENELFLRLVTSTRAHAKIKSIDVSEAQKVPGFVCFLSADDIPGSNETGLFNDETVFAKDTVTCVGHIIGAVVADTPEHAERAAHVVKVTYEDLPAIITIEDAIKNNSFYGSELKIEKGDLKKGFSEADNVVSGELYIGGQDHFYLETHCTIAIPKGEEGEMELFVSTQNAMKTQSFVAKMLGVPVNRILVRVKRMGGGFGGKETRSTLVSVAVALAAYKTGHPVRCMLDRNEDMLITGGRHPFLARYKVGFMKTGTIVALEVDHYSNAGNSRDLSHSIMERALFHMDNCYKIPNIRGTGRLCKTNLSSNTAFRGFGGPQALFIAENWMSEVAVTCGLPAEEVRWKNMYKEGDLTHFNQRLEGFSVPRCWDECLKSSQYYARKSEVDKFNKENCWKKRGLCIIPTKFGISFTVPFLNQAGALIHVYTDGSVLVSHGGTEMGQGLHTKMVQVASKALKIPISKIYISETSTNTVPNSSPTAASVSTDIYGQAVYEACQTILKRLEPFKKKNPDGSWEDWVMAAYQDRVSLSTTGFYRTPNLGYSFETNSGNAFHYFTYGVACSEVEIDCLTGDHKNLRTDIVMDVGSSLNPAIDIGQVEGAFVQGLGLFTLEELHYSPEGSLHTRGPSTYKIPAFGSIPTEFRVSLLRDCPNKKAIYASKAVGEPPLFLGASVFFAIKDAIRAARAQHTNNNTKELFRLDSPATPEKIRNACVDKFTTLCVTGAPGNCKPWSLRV
Experimental: A test compound was dissolved in DMSO (manufactured by Nakarai) so as to be a concentration of 10 mM and then used after the concentration was adjusted to an aimed one at use.
The evaluation of xanthine oxidase-inhibitory activity of the compound of the invention was carried out using a method described in a document (Free Radic. Biol. Med. 6, 607-615, 1992) with partial modification. Namely, xanthine oxidase (derived from butter milk, manufactured by Sigma) was adjusted to 0.03 units/ml using a 50 mM phosphate buffer and was added to a 96-well plate in an amount of 50 μl/well. Each test compound diluted so as to be a final concentration was added thereto in an amount of 2 μl/well, followed by treatment at room temperature for 20 minutes. Pterin (manufactured by Sigma) was added thereto so as to be a final concentration of 5 μM, followed by reaction at room temperature for 10 minutes. Measurement was performed using a microplate reader saphire (manufactured by Tecan) under conditions of excitation at 345 nm and emission at 390 nm (pterin was oxidized by xanthine oxidase into isoxanthopterin, which emitted a light under the conditions).
The concentration of the test compound at which 50% inhibition was observed (IC50 value) was calculated, the emissions of isoxanthopterin under conditions of the presence or absence of xanthine oxidase being 0% inhibition and 100% inhibition, respectively.

[2] = system: pyrimidine synthetic pathway (BUN level); test: Pyrimidine synthetic pathway-inhibitory action (influence on BUN level); assay type: in vivo; details: oral administration of 30 mg/kg
From the text: Allopurinol which is an existing hyperuricemia therapeutic drug is known to cause renal dysfunction as an undesirable action. As mentioned previously, since allopurinol has a nucleic acid-like structure, as one cause thereof, it is presumed that it inhibits pyrimidine synthetic pathway. […] Thus, according to the method described in the document, the influence of the compounds of the invention on a BUN level was confirmed.

AKR1C3 (17βHSD5) = target: T2, AKR1C3 (17βHSD5) (Homo sapiens, UniProt P42330); test: AKR1C3 inhibitory action (DELFIA Testosterone Reagents); assay type: biochemical; details: read-out: IC50 (AKR1C3 inhibition)
T2 sequence (P42330 1-323): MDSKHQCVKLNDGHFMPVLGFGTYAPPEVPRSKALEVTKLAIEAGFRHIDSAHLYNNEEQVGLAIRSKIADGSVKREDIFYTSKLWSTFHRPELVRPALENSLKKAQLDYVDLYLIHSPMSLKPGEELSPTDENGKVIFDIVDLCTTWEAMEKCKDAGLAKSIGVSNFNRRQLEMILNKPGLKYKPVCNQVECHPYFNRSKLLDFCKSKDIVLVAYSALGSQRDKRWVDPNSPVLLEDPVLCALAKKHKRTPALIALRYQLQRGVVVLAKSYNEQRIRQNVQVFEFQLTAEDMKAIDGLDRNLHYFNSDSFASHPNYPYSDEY
From the text: AKR1C3 known as a molecule belonging to aldo-keto reductase is known as a multifunctional enzyme (Jikken Igaku 23, 90-97, 2005). There is expected the application of a compound inhibiting AKR1C3 to various morbid conditions including inflammatory diseases (Mol. Pharmacol 67, 60-68, 2005) (Current Pharmaceutical Design 10, 3505-3524, 2004) (J. Biol. Chem 273, 1855-1888, 1998).

TNBS-induced enteritis = test: Trinitrobenzenesulfonic acid-induced enteritis-inhibitory action; assay type: in vivo, male Wistar rats; details: 3 mg/kg oral once a day, dissection on 21st day, Wistar rat
Experimental: The effectiveness of the compound of the invention on an enteritis model can be also evaluated by a model using trinitrobenzenesulfonic acid (TNBS) as an inducing agent instead of acetic acid (Cell. Mol. Biol, 38, 189-199, 1992). Thus, referring to the method described in the report, the enteritis-suppressing action of the compound of the invention was evaluated.
Namely, TNBS or physiological saline as a normal group was administered into the rectum of male Wistar rats of 200 to 250 g. Thereafter, a test compound or 0.5% methyl cellulose (control group) was orally administered once a day and dissection was performed on each administered group on 21st day. A part of the large intestine 2 to 7 cm from the anus side was cut out and incised. After feces were removed by means of tweezers, the part was washed and a score of morbid conditions was evaluated and tissue weight was measured. The score of morbid conditions and a tissue weight increase-suppressing ratio were calculated as in the evaluation method of the above acetic acid-induced enteritis-suppressing action.

[3] = system: VEGF mRNA in the vitreous body; test: Diabetic retinopathy model (streptozotocin), VEGF mRNA in the vitreous body; assay type: in vivo, male Wistar rat; details: 30 mg/kg oral once a day for 7 days, STZ rats, vs control group
Experimental: The efficiency of the compound of the invention on diabetic retinopathy was tested by the method described in European Journal of Pharmacology 458 (2003) 283-289 (except that the animal used in the experiment was male Wistar rat, 10 weeks old).
Streptozotocin (STZ) was administered to the animals to be tested and increase in blood sugar level was confirmed after 24 hours. Thereafter, the animals were divided into a 0.5% methyl cellulose-administered group (control group) and 30 mg/kg test compound-administered group and oral administration was performed once a day for 7 days.

SMILES	pIC50 [1]	other results
N#Cc1cc(-c2cc(C(=O)O)ccn2)ccc1OCc1ccccc1 [Example 9]	8.59	
N#Cc1cc(-c2cc(C(=O)O)ccn2)ccc1OCCOc1cc(F)cc2c1OCCC2 [Example 33]	8.14	
CC(C)COc1c(Br)cc(-c2cc(C(=O)O)ccn2)cc1C#N [Example 79]	8.24	
COC1(C2CCCCC2)CCN(c2ccc(-c3cc(C(=O)O)ccn3)cc2C#N)CC1 [Example 67]	8.66	
N#Cc1cc(-c2cc(C(=O)O)ccn2)ccc1N1CCCCCC1 [Example 4, 2-(4-azepan-1-yl-3-cyanophenyl)isonicotinic acid monohydrochloride]	8.92	pIC50 (AKR1C3 (17βHSD5)): ≥ 6.00; Suppression of intestinal tissue weight increase (TNBS-induced enteritis): ≥ 70%; Pyrimidine synthetic pathway inhibitory action (BUN level) [2]: no inhibitory action; Suppression of increase of VEGF mRNA in the vitreous body [3]: significant suppressing action
N#Cc1cc(-c2cc(C(=O)O)ccn2)ccc1OCCOc1ccccc1 [Example 30]	8.38	
N#Cc1cc(-c2cc(C(=O)O)ccn2)ccc1NC1CCCCCC1 [Example 63]	8.96	
CC(C)COc1ccc(-c2nccc(C(=O)O)c2F)cc1C#N [Example 75]	8.49	
N#Cc1cc(-c2cc(C(=O)O)ccn2)ccc1OCc1ccccn1 [Example 21]	8.00	
CC(C)COc1ccc(-c2cc(C(=O)O)ccn2)cc1C#N [Example 1, 2-(3-cyano-4-isobutoxyphenyl)isonicotinic acid]	8.44	

More lines, main results first:

pIC50 [1]	SMILES	other results
8.51	CCCCN(C)c1ccc(-c2cc(C(=O)O)ccn2)cc1C#N [Example 57]	
8.55	N#Cc1cc(-c2cc(C(=O)O)ccn2)ccc1N1CC=CCC1 [Example 49]	
8.37	CC1(C)CC(Oc2ccc(-c3cc(C(=O)O)ccn3)cc2C#N)CC(C)(C)C1 [Example 44]	
8.30	CSCCCOc1ccc(-c2cc(C(=O)O)ccn2)cc1C#N [Example 3, 2-{3-cyano-4-[3-(methylthio)propoxy]phenyl}isonicotinic acid]	
8.39	N#Cc1cc(-c2cc(C(=O)O)ccn2)ccc1OC1CCOCC1 [Example 14]	
8.89	CC1CCN(c2ccc(-c3cc(C(=O)O)ccn3)cc2C#N)CC1 [Example 45]	Pyrimidine synthetic pathway inhibitory action (BUN level) [2]: no inhibitory action
8.51	CC(C)=CCOc1ccc(-c2cc(C(=O)O)ccn2)cc1C#N [Example 72]	
8.00	N#Cc1cc(-c2cc(C(=O)O)ccn2)ccc1OCC(F)(F)F [Example 13]	
8.60	CC(C)CSc1ccc(-c2cnccc2C(=O)O)cc1C#N [Example 7, sodium 5-[3-cyano-4-(isobutylthio)phenyl]isonicotinate]	
8.40	CC(C)COc1ccc(-c2cc(C(=O)O)c(Cl)cn2)cc1C#N [Example 77]	
